In the supplement of paper PMC4862054:

Key:
Settings in all cases: incubation time: 72 h
SK-BR-3 = test: normalised response (% of control), CellTiter-Glo; higher = more viable cells (100 = DMSO, 0 = benzethonium chloride kill control)
Outline: (§1)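 Compound was dispensed into 384-well plates at 5 concentrations in 10-fold steps spanning a 10,000-fold range specific to that compound. Breast cancer cell lines were added as 20 µl suspension and left for 72 h before CellTox Green fluorescence (485/520 nm) and then CellTiter-Glo luminescence, read after 10 min at room temperature. Each reported value is the normalised signal at one concentration, with 0.1 % DMSO set at 100 and a positive kill control at 0 on each plate.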

MFM-223 [1] = test: as above
Outline: as §1

BT-474 [2] = test: as above
Outline: as §1

HCC1937 [3] = test: as above
Outline: as §1

MDA-MB-453 [4] = test: as above
Outline: as §1

MDA-MB-231 [5] = test: as above
Outline: as §1

DU-4475 [6] = test: as above
Outline: as §1

HCC1143 [7] = test: as above
Outline: as §1

BT-549 [8] = test: as above
Outline: as §1

CAL-120 [9] = test: as above
Outline: as §1

MDA-MB-436 [10] = test: as above
Outline: as §1

Hs578T [11] = test: as above
Outline: as §1

HCC1599 [12] = test: as above
Outline: as §1

CAL-148 [13] = test: as above
Outline: as §1

HDQ-P1 [14] = test: as above
Outline: as §1

MCF-10A [15] = test: as above
Outline: as §1

CAL-51 [16] = test: as above
Outline: as §1

MDA-MB-468 [17] = test: as above
Outline: as §1

CAL-85-1 [18] = test: as above
Outline: as §1

MFM-223 [19] = test: normalised response (% of control), CellTox Green; higher = less cell death (100 = DMSO, 0 = benzethonium chloride kill control)
Outline: as §1

BT-474 [20] = test: as above
Outline: as §1

HCC1937 [21] = test: as above
Outline: as §1

MDA-MB-453 [22] = test: as above
Outline: as §1

MDA-MB-231 [23] = test: as above
Outline: as §1

DU-4475 [24] = test: as above
Outline: as §1

HCC1143 [25] = test: as above
Outline: as §1

BT-549 [26] = test: as above
Outline: as §1

CAL-120 [27] = test: as above
Outline: as §1

MDA-MB-436 [28] = test: as above
Outline: as §1

Hs578T [29] = test: as above
Outline: as §1

HCC1599 [30] = test: as above
Outline: as §1

CAL-148 [31] = test: as above
Outline: as §1

HDQ-P1 [32] = test: as above
Outline: as §1

MCF-10A [33] = test: as above
Outline: as §1

CAL-51 [34] = test: as above
Outline: as §1

MDA-MB-468 [35] = test: as above
Outline: as §1

CAL-85-1 [36] = test: as above
Outline: as §1

SMILES: CC[C@]1(O)C[C@H]2CN(CCc3c([nH]c4ccccc34)[C@@](C(=O)OC)(c3cc4c(cc3OC)N(C=O)[C@H]3[C@@](O)(C(=O)OC)[C@H](OC(C)=O)[C@]5(CC)C=CCN6CC[C@]43[C@@H]65)C2)C1 [Vincristine] (1000 nM)
- normalised response (SK-BR-3): 18.5%
- normalised response (MFM-223 [1]): 44.2%
- normalised response (BT-474 [2]): 53.5%
- normalised response (HCC1937 [3]): 73.2%
- normalised response (MDA-MB-453 [4]): 63.8%
- normalised response (MDA-MB-231 [5]): 48.4%
- normalised response (DU-4475 [6]): 42.5%
- normalised response (HCC1143 [7]): 55.3%
- normalised response (BT-549 [8]): 38%
- normalised response (CAL-120 [9]): 62.2%
- normalised response (MDA-MB-436 [10]): 28.8%
- normalised response (Hs578T [11]): 25%
- normalised response (HCC1599 [12]): 12.2%
- normalised response (CAL-148 [13]): 59.3%
- normalised response (HDQ-P1 [14]): 71.5%
- normalised response (MCF-10A [15]): 68.1%
- normalised response (CAL-51 [16]): 23.8%
- normalised response (MDA-MB-468 [17]): 38.2%
- normalised response (CAL-85-1 [18]): 50.1%
- normalised response (MFM-223 [19]): 65.1%
- normalised response (BT-474 [20]): 78.7%
- normalised response (HCC1937 [21]): 102%
- normalised response (MDA-MB-453 [22]): 82.2%
- normalised response (MDA-MB-231 [23]): 45.3%
- normalised response (DU-4475 [24]): 95.8%
- normalised response (HCC1143 [25]): 75.8%
- normalised response (BT-549 [26]): 73.4%
- normalised response (CAL-120 [27]): 85%
- normalised response (MDA-MB-436 [28]): 72.1%
- normalised response (Hs578T [29]): 33.5%
- normalised response (HCC1599 [30]): 69.7%
- normalised response (CAL-148 [31]): 86.8%
- normalised response (HDQ-P1 [32]): 99.3%
- normalised response (MCF-10A [33]): 56.6%
- normalised response (CAL-51 [34]): 29.8%
- normalised response (MDA-MB-468 [35]): -25.1%
- normalised response (CAL-85-1 [36]): 54.1%
